Results taken from ChEMBL document CHEMBL3988442, “University of Dundee, Small-Polar-MMV Screening Library” (2021).
“And” between values parts separate entries of the source, which are not always exact repeats. Equal entries are not always repeated.

Key:
[1] = biological target: T1, Coenzyme A biosynthesis bifunctional protein CoaBC (Mycobacterium tuberculosis (strain ATCC 25618 / H37Rv), UniProt P9WNZ1); test: Biomol Green assay for MtCoaBC inhibitor, OD650 read; assay type: functional
T1 sequence (P9WNZ1 whole entry): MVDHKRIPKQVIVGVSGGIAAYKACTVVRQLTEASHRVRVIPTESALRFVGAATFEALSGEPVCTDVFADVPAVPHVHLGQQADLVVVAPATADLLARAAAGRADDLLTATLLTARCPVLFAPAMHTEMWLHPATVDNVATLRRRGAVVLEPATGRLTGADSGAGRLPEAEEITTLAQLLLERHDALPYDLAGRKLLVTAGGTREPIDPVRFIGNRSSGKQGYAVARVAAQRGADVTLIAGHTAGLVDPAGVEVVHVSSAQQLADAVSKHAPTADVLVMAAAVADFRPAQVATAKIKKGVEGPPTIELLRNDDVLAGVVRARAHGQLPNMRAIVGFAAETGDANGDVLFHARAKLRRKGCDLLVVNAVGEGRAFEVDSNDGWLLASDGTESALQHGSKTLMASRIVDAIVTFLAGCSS

[2] = microbe, parasite or virus in culture; settings: Mycobacterium tuberculosis, 96 h, read-out: pIC50 (converted)
[3] = microbe, parasite or virus in culture; settings: Mycobacterium tuberculosis, 72 h, read-out: pIC50 (converted)
[4] = tested on: Plasmodium falciparum; test: Calibr Malaria Delayed Death Assay SOP; assay type: functional, organism-based

Structure (SMILES)	IC50 [1]	also measured
CC(C)(C)CN1CCN2C(=O)N(C3CCCCC3)C[C@H]2C1	> 30.2 µM	IC50 [2]: > 50.1 µM; IC50 [3]: > 50.1 µM
COc1c(Cl)cc(Cl)cc1CN1CCC(C(N)=O)C1 (stereo unspecified)	> 30.2 µM	IC50 [2]: > 50.1 µM; IC50 [3]: > 50.1 µM
Cn1cc(CNC2CCCOc3c2ccc2ccccc32)cn1 (stereo unspecified)	> 30.2 µM	pIC50 [4]: 6.02; IC50 ([4]; Plasmodium falciparum): 0.871 µM
COCCN1CC(C(=O)N(CCN(C)C)Cc2ccc(C)s2)CC1=O (stereo unspecified)	> 30.2 µM	
CCc1nc(NCCc2c(C)nn(CC)c2C)c2cnn(C)c2n1	> 30.2 µM	
Cc1ccc(C(=O)O)cc1CNC(=O)CN1CC[C@](C)(O)C(C)(C)C1	> 30.2 µM	
CN(Cc1nccs1)C1CCN(c2cccc(-c3cscn3)c2)CC1	> 30.2 µM	
CS(=O)(=O)c1ccc(CN2C[C@H]3CC[C@@H]2CN(c2ncccn2)C3)cc1	> 30.2 µM	
Cc1cccc(CN(C(=O)CCn2cncn2)C(C)C)c1	> 30.2 µM	
O=C1O[C@@H]2CN(c3ccc(Cl)cn3)C[C@@H]2N1CCc1ccc(F)cc1	> 30.2 µM	
Cc1ccc(CN2CCN(C3CCCC3)CC2CCO)o1 (stereo unspecified)	> 30.2 µM	
Cc1cccc(CNC(=O)NCC2CCN(Cc3ncc[nH]3)C2)c1 (stereo unspecified)	> 30.2 µM	
CC(C)NC(=O)[C@@H]1C[C@H](N)CN1C(=O)C1(c2ccc(Cl)cc2)CCC1	> 30.2 µM	
Cc1nc2c(C(=O)N[C@H]3C[C@H]4CN(C)CCN4C3)cccc2[nH]1	> 30.2 µM	
Cc1csc(CN2CCC(C(=O)O)(n3ccc(-c4ccco4)n3)CC2)n1	> 30.2 µM	
COc1ccc(NC2CCCN(Cc3cnc(N(C)C)s3)C2)cc1OC (stereo unspecified)	> 30.2 µM	
CCc1cc(NCCN2CCNC2=O)n2nccc2n1	> 30.2 µM	
O=C1O[C@@H]2CN(c3cnccn3)C[C@@H]2N1CCCc1ccc(F)cc1	> 30.2 µM	
COc1ccc(-c2noc(C3CC(C(C)C)=NO3)n2)cc1 (stereo unspecified)	> 30.2 µM	
O=C(O)COc1ccc(CN2CCCC(CCc3ccccc3)C2)cc1 (stereo unspecified)	19.9 µM and 19.6 µM	
O=c1cc(C2CCNCC2)nc(CCc2ccccn2)[nH]1	> 30.2 µM	
CN(C)c1ncc(CN2CCCC(Nc3ccc4c(c3)OCCO4)C2)s1 (stereo unspecified)	> 30.2 µM	

Structure (SMILES)	IC50 [1]	also measured
CC(=O)Nc1ccc(Oc2cccc(CN3CCCC3)c2)cc1	> 50.1 µM	
O=C(CCC1CCN(C2CCSCC2)CC1)NCC1CCCO1 (stereo unspecified)	> 30.2 µM	
O=C1CN(Cc2cn(CC3CCCN(C4CCSCC4)C3)nn2)CCN1 (stereo unspecified)	> 30.2 µM	
CC1(C)CN(CCC(=O)NCc2cccc(Cl)c2)CC[C@]1(C)O	> 30.2 µM	
Cc1cnc(C)c(-c2cccc(-c3ccn(CCN4CCCC4)n3)c2)n1	> 30.2 µM	
Cc1cc(N2CCC(c3ncc[nH]3)CC2)nc(N)n1	> 30.2 µM	
CCn1cc(CN(C)Cc2cnn(-c3ccc(F)cc3)c2)cn1	> 30.2 µM	
Cc1ccc(C(=O)O)c(N2Cc3cnc(C(C)(C)C)nc3C2)n1	> 30.2 µM	
COc1ccc(NC2(C(=O)N3CCCn4cncc4C3)CCCC2)cc1	> 30.2 µM	
Cc1nccnc1-n1c(COCC(=O)O)nc2c(C)cccc21	> 50.1 µM	
O[C@]12CCNC[C@H]1CN(c1ncccc1Cl)CC2	> 30.2 µM	
CN1CCN([C@H]2CCN(C(=O)c3cc(Cl)cn3C)C[C@H]2CCCO)CC1	> 30.2 µM	
CC(C)CCn1c(=O)n(CCn2cccc2)c2cc(C(=O)O)cnc21	> 30.2 µM	
CSc1nc(C)cc(N2CCC(c3ncc[nH]3)CC2)n1	> 30.2 µM	
NC(=O)c1cc2c(nc1Oc1cccc(CN3CCCC3)c1F)CCC2	> 30.2 µM	
CN(C)C(C(=O)NCc1cc(C(C)(C)C)n[nH]1)c1ccc(F)cc1 (stereo unspecified)	> 30.2 µM	
COCCC1CCN([C@@H]2c3ccccc3C3(CCNCC3)[C@H]2O)CC1	> 30.2 µM	
CCN(CCO)C[C@@H]1CN(C(=O)c2ccc(C)s2)C[C@@H]1CO	> 30.2 µM	
Cc1nonc1C1CCCN1Cc1ccc(C(=O)Nc2nccs2)cc1 (stereo unspecified)	> 30.2 µM	
Cc1ccnc(N2C[C@@H]3CC[C@H](C2)N(CC2CCC2)C3=O)n1	> 30.2 µM	
COc1cccc(Cc2nc3c([nH]2)CC(C)(C)CNC3=O)c1OC	> 30.2 µM	
COCCN(Cc1cnn(C)c1)CC1CCN(C(C)C)CC1	> 30.2 µM	

Structure (SMILES)	IC50 [1]	also measured
CN(C)C(=O)c1ccc(C(C(=O)O)N(C)Cc2ccccc2Cl)cc1 (stereo unspecified)	> 30.2 µM	
COCCN(C)CC(=O)N1CCCC2(CCC(=O)N(CC3CC3)C2)C1 (stereo unspecified)	> 30.2 µM	
Cc1ccc(NC2CCN(C(=O)c3cnn(C(C)(C)C)c3)CC2)nn1	> 50.1 µM	
COc1cc(CNC2CCc3nc(C)nn3C2)cc2c1OCO2 (stereo unspecified)	> 30.2 µM	
O=C(NCCNc1ncccn1)C1CCCC1	> 30.2 µM	
CC(C)c1noc(CN2CCN(C(=O)c3cccnc3O)CC2)n1	> 30.2 µM	
O=C(CN1CC(n2cccn2)C1)NCCC1=CCCCC1	> 30.2 µM	
NC(=O)C1CN(C(=O)Nc2ccccc2Oc2ccccc2Cl)CCO1 (stereo unspecified)	> 30.2 µM	
Cc1cc(NC(=O)CN2CCN(c3nccs3)C(C)C2)no1 (stereo unspecified)	> 30.2 µM	
Cc1n[nH]c(C)c1NC(=O)CN1CCN(c2nccs2)C(C)C1 (stereo unspecified)	> 30.2 µM	
CC(C)c1ncc2c(n1)CN(Cc1nc(-c3ccccn3)no1)CC2	> 30.2 µM	
CC(C)c1noc(CN2CCN(C(=O)c3cc(Cl)ccc3F)CC2)n1	> 30.2 µM	
Cc1nn(C)c(C)c1NC(=O)CN1CCN(c2nccs2)C(C)C1 (stereo unspecified)	> 30.2 µM	
Cc1nn(C)c(Cl)c1C1CCCN1Cc1nc(-c2ccco2)no1 (stereo unspecified)	> 30.2 µM	
CCc1ncc2c(n1)CN(Cc1nc(-c3cccs3)no1)CC2	> 30.2 µM	
Cc1nn(-c2ccccc2)cc1C(=O)N1CCCC1c1cnn(C)c1 (stereo unspecified)	> 30.2 µM	
COc1ccc(Cl)cc1C(=O)NCCNc1cnccn1	> 30.2 µM	
Cn1cnc(S(=O)(=O)NCCN2CCCCCC2)c1Cl	> 30.2 µM	
COc1cccc2cc(CNCc3ccc(N4CCCC4)nc3)oc12	> 30.2 µM	
Cc1nnc(CN(Cc2ccc3c(c2)OCO3)C2CCCCC2)o1	> 30.2 µM	
CCNC(=O)NC(=O)CNC(C)(C)c1ccc2c(c1)OCCO2	> 30.2 µM	
CCc1noc(C(C)N2CCN(CCN3CCCC3=O)CC2)n1 (stereo unspecified)	> 30.2 µM	

Structure (SMILES)	IC50 [1]	also measured
CN(Cc1nnc(C2CC2)n1C)C1CCN(Cc2ccncc2)C1 (stereo unspecified)	> 30.2 µM	
Cc1cnn(CC2CCCN2Cc2nnc(C)o2)c1 (stereo unspecified)	> 30.2 µM	
COc1cccc(N2CCC(CNCc3cccc(C#N)c3)C2)c1 (stereo unspecified)	> 30.2 µM	
COc1ccccc1N1CCC(CNCc2ccc(C#N)cc2)C1 (stereo unspecified)	> 30.2 µM	
Cc1cnn(CC2CCCN2Cc2nnc(-c3ccccc3)o2)c1 (stereo unspecified)	> 30.2 µM	
CC(C(=O)Nc1ccc(N2CCCCC2)nc1)n1cncn1 (stereo unspecified)	> 30.2 µM	
Cc1nn(C)c(Cl)c1C1CCCN1C(=O)c1ccncc1 (stereo unspecified)	> 30.2 µM	
CC(NCc1ccccc1Cl)c1ccc2[nH]c(=O)[nH]c2c1 (stereo unspecified)	> 30.2 µM	
Cc1nn(CCO)c(C)c1CNCc1cccnc1N(C)C	> 30.2 µM	
CN1CCOC(CNCc2cccc(OC(F)(F)F)c2)C1 (stereo unspecified)	> 30.2 µM	
Cc1cc(C2CCCN(CCNS(=O)(=O)c3ccccc3)C2)n[nH]1 (stereo unspecified)	> 30.2 µM	
OC(CN1CCC(c2ccn[nH]2)CC1)c1ccc(F)cc1F (stereo unspecified)	> 30.2 µM	
O=C(c1ccc(-n2cnnn2)cc1)N1CCCC(n2ccnc2)C1 (stereo unspecified)	> 30.2 µM	
Cc1cnn(CC2CCCN2C(=O)c2cccc(S(C)(=O)=O)c2)c1 (stereo unspecified)	> 30.2 µM	
Cc1cccc(NC2CCN(C(=O)Nc3ccccn3)CC2)n1	> 30.2 µM	
Cc1cccc(NC2CCN(C(=O)Nc3cn[nH]c3)CC2)n1	> 30.2 µM	
CN(Cc1ccc(F)cc1)C(=O)NCc1nnc2n1CCC2	> 30.2 µM	
CCc1nccn1CC1CCCN1S(=O)(=O)Cc1ccccc1 (stereo unspecified)	> 30.2 µM	
COc1ccccc1CNC(=O)N1CCN(Cc2cc(C)on2)CC1	> 30.2 µM	
c1ccc(-c2nc(CN3CCCC3Cn3cncn3)co2)cc1 (stereo unspecified)	> 30.2 µM	
Fc1ccc(-c2nc(CN3CCCCC3Cn3cncn3)co2)cc1 (stereo unspecified)	> 30.2 µM	
Fc1cccc(-c2nc(CN3CCCC(Cn4cncn4)C3)co2)c1 (stereo unspecified)	> 30.2 µM	

Structure (SMILES)	IC50 [1]	also measured
Cc1nn(C)c(C)c1C1CCCN1C(=O)c1cnc2onc(C)c2c1 (stereo unspecified)	> 30.2 µM	
Cc1nc(C2CCCN(C(=O)c3ccc(Cl)cn3)C2)no1 (stereo unspecified)	> 30.2 µM	
CC(=O)Nc1nc(C(=O)N2CCCC2c2noc(C3CC3)n2)cs1 (stereo unspecified)	> 30.2 µM	
O=C(c1cc2cc(F)ccc2[nH]1)N1CCCCC1Cn1cccn1 (stereo unspecified)	> 30.2 µM	
Cc1cc(NC(=O)CN2CCc3cnc(C(C)C)nc3C2)on1	> 30.2 µM	
Cc1cc(CN2CCOC(CNc3cccnn3)C2)no1 (stereo unspecified)	> 30.2 µM	
Cc1ncc2c(n1)CCN(CCCc1nc3ccccc3o1)C2	> 50.1 µM	
Cc1nn2cccnc2c1C(=O)N1CCCC(n2ccnc2C)C1 (stereo unspecified)	> 30.2 µM	
Cc1ccc(NC2CCN(C(=O)c3cccc4[nH]ncc34)CC2)nn1	> 30.2 µM	
Cc1nc(C2CCCN(C(=O)c3c(C)nn4cccnc34)C2)no1 (stereo unspecified)	> 30.2 µM	
CC1CCN(CCNC(=O)c2ccn(-c3ccc(F)cc3)n2)CC1	> 30.2 µM	
CC(C)COCC(NC(=O)c1cnccn1)c1ccco1 (stereo unspecified)	> 30.2 µM	
Cc1ccc(OCCC(=O)N2CCOCC2c2ncon2)cc1C (stereo unspecified)	> 30.2 µM	
Cc1cc(C2CCCN2CCC(=O)N2CCc3sccc3C2)no1 (stereo unspecified)	> 30.2 µM	
CC(NC(=O)Nc1cccnc1N1CCCC1)c1ccn(C)c1 (stereo unspecified)	> 30.2 µM	
Cc1nn(C)c(Cl)c1C1CCCN1CC(=O)Nc1cccnc1 (stereo unspecified)	> 30.2 µM	
O=C(Cc1cccc2ccccc12)N1CCC(Nc2cccnn2)CC1	> 30.2 µM	
Cc1nc(CN2CCCC2Cn2cncn2)nc2ccccc12 (stereo unspecified)	> 30.2 µM	
O=C(NCCn1nc2ccccn2c1=O)c1cc[nH]n1	> 30.2 µM	
CS(=O)(=O)NC1CCN(C(=O)NCCc2ccccc2F)CC1	> 30.2 µM	
COc1c(C)cc(CNCc2ccnc(N3CCOCC3)c2)cc1C	> 30.2 µM	
COc1c(-c2ccc(O)cc2)oc2cc(O)cc(O)c2c1=O [ISOKAEMPFERIDE]	> 30.2 µM	
